In patent US10702475B2, “Liposome containing compositions and their use in personal care and food products” (priority 2017, dated 2020):

Assay: Evaluation of polyglyceryl ester surfactants for structuring a liposome
Format: physicochemical
Conditions: class given by column head
Procedure: A series of polyglyceryl ester surfactants were evaluated to identify those capable of structuring a liposome. These reveal that liposome formation requires from 8 to 12 units of glycerol and a di-ester of C14-C18 fatty acid to establish a liposomal structure.

Row | structure formed by the surfactant (O/W emulsion, liposome or W/O emulsion) | Substance
1 | forms liposomes | Polyglyceryl-10 Dioleate
2 | forms O/W emulsions | Polyglyceryl-10 Mono/Dioleate
